Experimental data taken from patent US11104690B2, “Indazole derivatives useful as inhibitors of diacylglyceride O-acyltransferase 2” (Merck Sharp & Dohme Corp., priority 2016, dated 2021).

biological target: Human DGAT2 (Homo sapiens (Human), UniProt Q96PD7); assay: DGAT2 Enzymatic Activity Assay (triolein formation, LC/MS/MS); type: biochemical; conditions: hDGAT2 Sf-9 membrane prep; 25 μM diolein, 10 μM oleoyl-CoA; room temperature
Procedure: Sf-9 insect cells were maintained in Grace's insect cell culture medium with 10% heated-inactivated fetal bovine serum, 1% Pluronic F-68 and 0.14 μg/m Kanamycine sulfate in Erlenmeyer flasks at 28° C. in a shaker incubator. After infection with untagged hDGAT2 baculovirus at multiplicity of infection (MOI) 0.1 for 48 hours, cells were harvested. Cell pellets were suspended in buffer containing 10 mM Tris-HC (pH 7.5), 1 mM EDTA (pH 8.0), 250 mM sucrose and Complete Protease Inhibitor Cocktail (Roche Diagnostics Corp., Indianapolis, Ill.), and sonicated on ice. Membrane fractions were isolated by ultracentrifugation (100,000×g pellet), resuspended in the same buffer, and frozen (−80° C.) for later use. The protein concentration was determined with the BCA Protein Assay kit (Pierce Biotechnology Inc., Rockford, Ill.). Expression of protein levels was analyzed by immunoblotting with goat polyclonal DGAT2 antibody C-15 and donkey anti-goat IgG HRP (Santa Cruz Biotechnology, Inc., Santa Cruz, Calif.) followed by detection with ECL reagent (GE Healthcare, Piscataway, N.J.).
LC/MS/MS analyses were performed using Thermal Fisher's LX4-TSQ Vantage system. This system consists of an Agilent binary high-performance liquid chromatography (HPLC) pumps and a TSQ Vantage triple quadrupole MS/MS instrument. For each sample, 2 μL samples from the top organic layer of in-plate liquid-liquid extraction were injected onto a Thermo Betabasic C4 column (2.1 mm×20 mm, 5 μm particle size). The samples were then eluted using the following conditions; mobile phase: MeOH/water with 0.1% ammonium format=92/8 (v/v), flow rate: 1 mL/min, temperature: 25 C. Data was acquired in positive mode using a heated electrospray ionization (HESI) interface. The operational parameters for the TSQ Vantage MS/MS instrument were a spray voltage of 3000 V, capillary temperature of 280° C., vaporizer temperature 400° C., shealth gas 60 arbitrary unit, Aux gas 40 arbitrary units, S-lens 113 and collision gas 0.16 Pascals. […] (SRM) chromatograms of triolein (Q1: 902.9>Q3:602.3) and internal standard ([…]) were collected for 40 sec. The peak area was integrated by Xcalibur Quan software. The ratio between the triolein generated in the reaction and spiked in internal standard was used to generate percentage inhibition and IC50 values. Compound percentage inhibition was calculated by the following formula: Inhibition %=1−[(compound response−low control)/(high control−low control)]×100%. Potent compounds were titrated and IC50 were calculated by 4 parameter sigmoidal curve fitting formula.
DGAT2 activity was determined by measuring the amount of enzymatic product triolein (1,2,3-Tri(cis-9-octadecenoyl)glycerol) using the membrane prep mentioned above. The assay was carried out in deep well 384 plates in a final volume of 40 μL at room temperature. The assay mixture contained the following: assay buffer (100 mM Tris.Cl, pH 7.0, 20 mM MgCl2, 5% ethanol), 25 μM of diolein, 10 μM of oleoyl-CoA and 10 ng/μL of DGAT2 membrane.

Human DGAT2, sequence (Q96PD7 whole entry): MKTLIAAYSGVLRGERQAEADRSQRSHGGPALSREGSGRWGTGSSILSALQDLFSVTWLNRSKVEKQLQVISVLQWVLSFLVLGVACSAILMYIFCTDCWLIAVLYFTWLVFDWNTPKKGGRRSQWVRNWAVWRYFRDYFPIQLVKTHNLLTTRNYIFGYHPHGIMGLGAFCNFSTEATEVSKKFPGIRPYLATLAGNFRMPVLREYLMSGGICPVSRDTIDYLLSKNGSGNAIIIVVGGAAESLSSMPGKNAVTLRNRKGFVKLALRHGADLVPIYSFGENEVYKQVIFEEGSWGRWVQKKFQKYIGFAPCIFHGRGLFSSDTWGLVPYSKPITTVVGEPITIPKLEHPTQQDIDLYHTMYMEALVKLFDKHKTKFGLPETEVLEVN

Row | Compound | IC50
1 | O=C(NC1CNCCS(=O)(=O)C1)c1ccc2c(-c3ccccc3Cl)nn(-c3ccc(F)cc3)c2c1 (racemic) [Example 102, 3-(2-chlorophenyl)-N-(1,1-dioxido-1,4-thiazepan-6-yl)-1-(4-fluorophenyl)-1H-indazole-6-carboxamide] | 179 nM
2 | N#Cc1ccc(Cl)c(-c2nn(-c3ccc(F)cc3)c3cc(C(=O)NC4CCS(=O)(=O)C4)ccc23)c1 (single isomer, unassigned) [Example 120-A, 3-(2-chloro-5-cyanophenyl)-N-(1,1-dioxidotetrahydrothiophen-3-yl)-1-(4-fluorophenyl)-1H-indazole-6-carboxamide] | 4.2 nM
3 | O=C(NCCS(=O)(=O)Nc1ccccn1)c1ccc2c(-c3ccccc3Cl)nn(-c3ccc(F)cc3)c2c1 [Example 55, 3-(2-chlorophenyl)-1-(4-fluorophenyl)-N-[2-(pyridin-2-ylsulfamoyl)ethyl]-1H-indazole-6-carboxamide] | 383 nM
4 | N#Cc1ccc(Cl)c(-c2nn(-c3ccc(F)cc3)c3cc(C(=O)NC4(CO)CCC4)ccc23)c1 [Example 118, 3-(2-chloro-5-cyanophenyl)-1-(4-fluorophenyl)-N-[1-(hydroxymethyl)cyclobutyl]-1H-indazole-6-carboxamide] | 5.5 nM
5 | COC[C@H](C)NC(=O)c1ccc2c(-c3ccccc3Cl)nn(-c3ccc(F)cc3)c2c1 [Example 12, 3-(2-chlorophenyl)-1-(4-fluorophenyl)-N-[(1S)-2-methoxy-1-methylethyl]-1H-indazole-6-carboxamide] | 85 nM
6 | O=C(c1ccc2c(-c3ccccc3Cl)nn(-c3ccc(F)cc3)c2c1)N1CC2CC1CS(=O)(=O)C2 (racemic) [Example 23, 3-(2-chlorophenyl)-6-[(3,3-dioxido-3-thia-6-azabicyclo[3.2.1]oct-6-yl)carbonyl]-1-(4-fluorophenyl)-1H-indazole] | 403 nM
7 | O=C(NCc1ccccn1)c1ccc2c(-c3ccccc3Cl)nn(-c3ccc(F)cc3)c2c1 [Example 32, 3-(2-chlorophenyl)-1-(4-fluorophenyl)-N-(pyridin-2-ylmethyl)-1H-indazole-6-carboxamide] | 495 nM
8 | Cn1cc(C(C)(C)NC(=O)c2ccc3c(-c4ccccc4Cl)nn(-c4ccc(F)cc4)c3c2)cn1 [Example 16, 3-(2-chlorophenyl)-1-(4-fluorophenyl)-N-[1-methyl-1-(1-methyl-1H-pyrazol-4-yl)ethyl]-1H-indazole-6-carboxamide] | 120 nM
9 | O=C(NC1CCCC1)c1ccc2c(-c3ccccc3Cl)nn(-c3ccc(F)cc3)c2c1 [Example 84, 3-(2-chlorophenyl)-N-cyclopentyl-1-(4-fluorophenyl)-1H-indazole-6-carboxamide] | 156 nM
10 | O=C(NC1CCS(=O)(=O)C1)c1ccc2c(-c3ccccc3Cl)nn(-c3ccc(F)cn3)c2c1 (single isomer, unassigned) [Example 176-A, 3-(2-chlorophenyl)-N-(1,1-dioxidotetrahydrothiophen-3-yl)-1-(5-fluoropyridin-2-yl)-1H-indazole-6-carboxamide] | 252 nM
11 | CC1(NC(=O)c2ccc3c(-c4cc(Cl)cc(Cl)c4)nn(-c4ccc(F)cc4)c3c2)CCS(=O)(=O)C1 (single isomer, unassigned) [Example 157-A, 3-(3,5-dichlorophenyl)-1-(4-fluorophenyl)-N-(3-methyl-1,1-dioxidotetrahydrothiophen-3-yl)-1H-indazole-6-carboxamide] | 61 nM
12 | COC(=O)C1(NC(=O)c2ccc3c(-c4ccccc4Cl)nn(-c4ccc(F)cc4)c3c2)CCCC1 [Example 63, methyl 1-({[3-(2-chlorophenyl)-1-(4-fluorophenyl)-1H-indazol-6-yl]carbonyl}amino)cyclopentane-carboxylate] | 405 nM
13 | N[C@H]1CS(=O)(=O)C[C@@H]1NC(=O)c1ccc2c(-c3ccccc3Cl)nn(-c3ccc(F)cc3)c2c1 [Example 8, N-[(3R,4R)-4-amino-1,1-dioxidotetrahydrothiophen-3-yl]-3-(2-chlorophenyl)-1-(4-fluorophenyl)-1H-indazole-6-carboxamide] | 554 nM
14 | COC(=O)C1(NC(=O)c2ccc3c(-c4ccccc4Cl)nn(-c4ccc(F)cc4)c3c2)CC[S+]([O-])C1 (racemic) [Example 89, methyl 3-({[3-(2-chlorophenyl)-1-(4-fluorophenyl)-1H-indazol-6-yl]carbonyl}amino)tetra-hydrothiophene-3-carboxylate 1-oxide] | 125 nM
15 | CCCCC(NC(=O)c1ccc2c(-c3ccccc3Cl)nn(-c3ccc(F)cc3)c2c1)C(O)C(F)(F)F (stereo not shown) [Example 73, 3-(2-chlorophenyl)-1-(4-fluorophenyl)-N-[1-(2,2,2-trifluoro-1-hydroxyethyl)pentyl]-1H-indazole-6-carboxamide] | 534 nM
16 | CC(C)(CO)NC(=O)c1ccc2c(-c3ccccc3Cl)nn(-c3ccc(F)cc3)c2c1 [Example 42, 3-(2-chlorophenyl)-1-(4-fluorophenyl)-N-(2-hydroxy-1,1-dimethylethyl)-1H-indazole-6-carboxamide] | 26 nM
17 | CC1(NC(=O)c2ccc3c(-c4cc(C(N)=O)ccc4Cl)nn(-c4ccc(F)cc4)c3c2)CCS(=O)(=O)C1 (single isomer, unassigned) [Example 121-B, 3-(5-carbamoyl-2-chlorophenyl)-1-(4-fluorophenyl)-N-(3-methyl-1,1-dioxidotetrahydrothiophen-3-yl)-1H-indazole-6-carboxamide] | 61 nM
18 | O=C(NC1(CO)CC1)c1ccc2c(-c3ccccc3Cl)nn(-c3ccc(F)cc3)c2c1 [Example 61, 3-(2-chlorophenyl)-1-(4-fluorophenyl)-N-[1-(hydroxymethyl)cyclopropyl]-1H-indazole-6-carboxamide] | 73 nM
19 | CC1(NC(=O)c2ccc3c(-c4ccccc4Cl)nn(-c4cccnc4)c3c2)CCS(=O)(=O)C1 (racemic) [Example 189, 3-(2-chlorophenyl)-N-(3-methyl-1,1-dioxidotetrahydrothiophen-3-yl)-1-pyridin-3-yl-1H-indazole-6-carboxamide] | 409 nM
20 | O=C(N[C@@H]1C[C@H](CO)[C@@H](O)[C@H]1O)c1ccc2c(-c3ccccc3Cl)nn(-c3ccc(F)cc3)c2c1 [Example 87, 3-(2-chlorophenyl)-N-[(1R,2S,3R,4R)-2,3-dihydroxy-4-(hydroxymethyl)cyclopentyl]-1-(4-fluorophenyl)-1H-indazole-6-carboxamide] | 198 nM
21 | O=C(NC1CCS(=O)(=O)C1)c1ccc2c(-c3cccc(OC(F)F)c3)nn(-c3ccc(F)cc3)c2c1 (single isomer, unassigned) [Example 136-A, 3-[3-(difluoromethoxy)phenyl]-N-(1,1-dioxidotetrahydrothiophen-3-yl)-1-(4-fluorophenyl)-1H-indazole-6-carboxamide] | 1.4 nM
22 | CC(C)n1nc(-c2ccccc2Cl)c2ccc(C(=O)NC3CCS(=O)(=O)C3)cc21 (stereo not shown) [Example 169, 3-(2-chlorophenyl)-N-(1,1-dioxidotetrahydrothiophen-3-yl)-1-(1-methylethyl)-1H-indazole-6-carboxamide] | 364 nM
23 | O=C(NC1CCOC1)c1ccc2c(-c3ccccc3Cl)nn(-c3ccc(F)cc3)c2c1 (racemic) [Example 77, 3-(2-chlorophenyl)-1-(4-fluorophenyl)-N-(tetrahydrofuran-3-yl)-1H-indazole-6-carboxamide] | 59 nM
24 | O=C(NC1CCS(=O)(=O)C1)c1ccc2c(-c3ccccc3Cl)nn(-c3ccccn3)c2c1 (single isomer, unassigned) [Example 175-A, 3-(2-chlorophenyl)-N-(1,1-dioxidotetrahydrothiophen-3-yl)-1-pyridin-2-yl-1H-indazole-6-carboxamide] | 338 nM
25 | C[C@@H](NC(=O)c1ccc2c(-c3ccccc3Cl)nn(-c3ccc(F)cc3)c2c1)[C@@H](O)c1ccccc1 [Example 106, 3-(2-chlorophenyl)-1-(4-fluorophenyl)-N-[(1R,2S)-2-hydroxy-1-methyl-2-phenylethyl]-1H-indazole-6-carboxamide] | 832 nM
